Results published in patent US20080242729A1, “Rxr Antagonists in the Treatment of Inflammatory Diseases” (priority 2004, published 2008).

Tests used:
[1] = system: MMP-1 mRNA; assay: MMP-1 mRNA accumulation in synovial fibroblasts (real time PCR); assay type: cell-based, human
Experimental: The effect of RXR antagonists on the activity of synovial fibroblasts, dependent on their state of activation, i.e. modified by a concomitant stimulation by the inflammatory cytokine Interleukin-1β (IL-1β), is determined. Furthermore, it is determined whether this is accompanied by a modulation in the accumulation of the mRNA encoding catabolic enzyme matrix metalloproteinase-1 (MMP-1), responsible for degradation of human cartilage and consequently joint destruction in man. Adherent synovial fluid cells taken from a patient with RA are used after 5 passages in an in vitro assay for cartilage destruction. The cells incubated in flasks coated with 0.1% (0.1 g/100 ml) human cartilage powder are fixed using Matrigel® (BD Biosciences, Becton, Dickinson & Co., Boston, Miss., USA). The release of sulphated glycosaminoglycan (sGAG) into the culture medium is monitored by a commercial calorimetric test according to a method described by S. Björnsson, see Anal. Biochem. 256, 229-237 (1998) using an alcian blue dot plot analysis, and the accumulation of mRNA encoding MMP-1 is quantified by real time PCR (TaqMan® (Roche Diagnostics, Basle, Switzerland)). […] This is conducted in the presence or absence of IL-1β (100 pg/ml).

[2] = system: synovial fibroblasts / human cartilage; assay: In vitro cartilage degradation by synovial fibroblasts from a RA patient, release of sGAG; assay type: cell-based
Experimental: The effect of RXR antagonists on the activity of synovial fibroblasts, dependent on their state of activation, i.e. modified by a concomitant stimulation by the inflammatory cytokine Interleukin-1β (IL-1β), is determined. Furthermore, it is determined whether this is accompanied by a modulation in the accumulation of the mRNA encoding catabolic enzyme matrix metalloproteinase-1 (MMP-1), responsible for degradation of human cartilage and consequently joint destruction in man. Adherent synovial fluid cells taken from a patient with RA are used after 5 passages in an in vitro assay for cartilage destruction. The cells incubated in flasks coated with 0.1% (0.1 g/100 ml) human cartilage powder are fixed using Matrigel® (BD Biosciences, Becton, Dickinson & Co., Boston, Miss., USA). The release of sulphated glycosaminoglycan (sGAG) into the culture medium is monitored by a commercial calorimetric test according to a method described by S. Björnsson, see Anal. Biochem. 256, 229-237 (1998) using an alcian blue dot plot analysis, and the accumulation of mRNA encoding MMP-1 is quantified by real time PCR (TaqMan® (Roche Diagnostics, Basle, Switzerland)).
The retinoid agonists all-trans retinoic acid and 9-cis retinoic acid, both physiological metabolites of vitamin A, as well as the RXR antagonist compound A, diluted first in ethanol, and then diluted with vehicle or medium to the desired dose/concentration are tested in a time course (0-35 days for the in vitro assay, 0-48 hours for MMP-1 mRNA, see tables 7, 8 and 10) and dose-dependent (10^−7 to 10^−9 M, see tables 5, 6 and 9). This is conducted in the presence or absence of IL-1β (100 pg/ml).

[3] = system: human skin; assay: Clinical pilot trial: inflammation potential on healthy, non-inflamed human skin (epicutaneous); assay type: in vivo
Text: In a clinical pilot trial on one healthy volunteer compound A is applied epicutaneously in a concentration of 1% for its inflammation potential compared to that of the strong inflammation inducing agent 9-cis RA in concentrations of 0.1%, 0.3% and 1%.
The compounds are solved or suspended in ethanol/propylene glycol (1:1). They are applied epicutaneously twice daily, 7 days a week, for two consecutive weeks. The site of application is an area of 3×3=9 cm^2 on the abdominal skin. The volume is 0.1 ml per application.
The following signs and symptoms of skin inflammation are recorded: Erythema, desquamation (scaling), pruritus, burning, pain, exsudation, edema, ulceration. They are classified on a scale of:
Treatment period lasts from day 1 to 14, the post-treatment observation period from day 15 to day 28

[4] = system: normal skin of mice; assay: Effect on normal, non-inflamed skin of mice; assay type: in vivo, mice (C57BL/6); settings: mouse ears
Experimental: The effect of the RXR antagonist compound A on normal skin of mice is investigated. The ears of C57BL/6 mice are treated epicutaneously (topically) for 4 consecutive days with compound A in a concentration of 0.05% and 2.5% in acetone/ethanol (1:1, v/v). Comparison with vehicle control. Daily observation of skin reactions, in particular inflammation, erythema, desquamation, and edema follows. Myeloperoxidase (MPO) activity is determined. The activity of MPO is considered the most sensitive criterium for the assessment of inflammation of the skin (see above, Examples 1 and 2).

[5] = system: human skin; assay: Clinical phase I trial: skin inflammation induced by Candidin or UV-B irradiation in healthy volunteers; assay type: in vivo; settings: Candidin intradermal or UV-B induced, topical treatment days 1-3, 4 volunteers; compound A 1% lotion, comparators as creams
Experimental: Four healthy volunteers participate. Inclusion criteria are: Age above 18 years, male or female. They are informed, with written letter of consent. Exclusion criteria are: Preexistant dermatological diseases, known allergy to test agents.
Inflammation inducing agents: Candidin is administered intradermally (see also D. Poffet, Comparaison entre le pouvoir vaso-constricteur d'un corticoide topique et l'inhibition de la dermite à la candidine après intradermoréaction (IDR). Thèse, Université de Genève, 1984). UV-B rays are administered by a UV-B lamp.
Inflammation is measured quantitatively. The area of the inflamed skin is measured in cm^2. The thickness of the skin is monitored by Ultrasound at 20 MHz. Erythema is measured by calorimetric determination employing a Minolta CR 20. […]
All determinations are recorded on a scale from 0 to 4: • 0=no reduction • 1=slight reduction (10 to 20%) • 2=moderate reduction (21 to 40%) • 3=marked reduction (41 to 70%) • 4=very marked reduction (71 to 100%) • Compared to vehicle control.

[6] = system: human skin; assay: Clinical pilot trial: preventive and therapeutic effect on 9-cis RA induced human skin inflammation; assay type: in vivo; settings: Therapy: 9-cis RA 0.3% day 1 to day 14, compound A 1% from day 15
Experimental: In this pilot clinical trial on one healthy volunteer, the substance 9-cis RA and compound A are administered epicutaneously. The inflammation-inducing agent 9-cis RA is used in a concentration of 0.3%. The RXR antagonist compound A is applied in a concentration of 1%. The compounds are solved in ethanol/propylene glycol (1:1) and administered twice daily. The site of application is the abdominal skin, with various areas of 3×3=9 cm^2. Volume per application is 0.1 ml.
The following three clinical settings at different sites are chosen:
1. Induction of Skin Inflammation by 9-cis RA • 9-cis RA is administered as a 0.3% solution twice daily from day 1 to day 14. The vehicle is administered from day 15 to disappearances of skin inflammation.
2. Prevention of 9-cis RA-Induced Skin Inflammation by RXR Antagonist Compound A • 9-cis RA solution of 0.3% is administered twice daily from day 1 to day 14, each time followed subsequently by application of compound A as a 1% solution.
3. Therapy of 9-Cis RA-Induced Skin Inflammation by RXR Antagonist Compound A • 9-cis RA solution of 0.3% is administered twice daily from day 1 to day 14. Compound A as a 1% solution is administered from day 15 until disappearance of skin inflammation.
The signs and symptoms of skin inflammation are recorded on a 0-4 scale, as described in example 16. […]

**Q.** How did the “MMP-1 mRNA in relative units (fold increase of baseline value)” value ([1]; 10^−7 M, after 24 hours) turn out when CC1=C(/C=C/C(C)=C\C=C\C(C)=C\C(=O)O)C(C)(C)CCC1 [9-cis RA, 9-cis retinoic acid] was run?
**A.** The value was 2.60 relative units.

**Q.** And the “MMP-1 mRNA in relative units (fold increase of baseline value)” value ([1]; 10^−8 M, 0 hours)?
**A.** Its value is 1 relative units.

**Q.** What about the “MMP-1 mRNA in relative units (fold increase of baseline value)” value ([1]; 10^−8 M, 2 hours) of the same compound?
**A.** The value was 0.98 relative units.

**Q.** And the “MMP-1 mRNA in relative units (fold increase of baseline value)” value ([1]; 10^−8 M, 6 hours)?
**A.** The value was 1.31 relative units.

**Q.** And the “MMP-1 mRNA in relative units (fold increase of baseline value)” value ([1]; 10^−8 M, 12 hours)?
**A.** The value was 3.39 relative units.

**Q.** What about the “MMP-1 mRNA in relative units (fold increase of baseline value)” value ([1]; 10^−8 M, 24 hours) of the same compound?
**A.** Its value is 3.79 relative units.

**Q.** What about the “MMP-1 mRNA in relative units (fold increase of baseline value)” value ([1]; 10^−8 M, 48 hours) of the same compound?
**A.** Its value is 1.47 relative units.

**Q.** What about the “MMP-1 mRNA in relative units (fold increase of baseline value)” value ([1]; 10^−8 M, after 24 hours) of the same compound?
**A.** The value was 3.39 relative units.

**Q.** And the “MMP-1 mRNA in relative units (fold increase of baseline value)” value ([1]; 10^−9 M, after 24 hours)?
**A.** Its value is 1.54 relative units.

**Q.** And the “sGAG in μg/ml (release of sGAG/14 days)” value ([2]; 10^−7 M, absence of IL-1β)?
**A.** The value was 189 µg/mL.

**Q.** And the “sGAG in μg/ml (release of sGAG/14 days)” value ([2]; 10^−7 M, presence of 100 pg/ml IL-1β)?
**A.** Its value is 221 µg/mL.

**Q.** What about the “sGAG in μg/ml (release of sGAG/14 days)” value ([2]; 10^−8 M, absence of IL-1β) of the same compound?
**A.** Its value is 107 µg/mL.

**Q.** What about the “Cumulative μg/ml sGAG/14 days” value ([2]; 10^−8 M, absence of IL-1β, day 7) of the same compound?
**A.** Its value is 44 µg/mL.

**Q.** And the “Cumulative μg/ml sGAG/14 days” value ([2]; 10^−8 M, absence of IL-1β, day 14)?
**A.** Its value is 107 µg/mL.

**Q.** What about the “Cumulative μg/ml sGAG/14 days” value ([2]; 10^−8 M, absence of IL-1β, day 21) of the same compound?
**A.** The value was 206 µg/mL.

**Q.** And the “Cumulative μg/ml sGAG/14 days” value ([2]; 10^−8 M, absence of IL-1β, day 28)?
**A.** The value was 253 µg/mL.

**Q.** And the “Cumulative μg/ml sGAG/14 days” value ([2]; 10^−8 M, absence of IL-1β, day 35)?
**A.** The value was 292 µg/mL.

**Q.** And the “sGAG in μg/ml (release of sGAG/14 days)” value ([2]; 10^−8 M, presence of 100 pg/ml IL-1β)?
**A.** The value was 189 µg/mL.

**Q.** And the “Cumulative μg/ml sGAG/14 days” value ([2]; 10^−8 M, presence of 100 pg/ml IL-1β, day 7)?
**A.** Its value is 68 µg/mL.

**Q.** And the “Cumulative μg/ml sGAG/14 days” value ([2]; 10^−8 M, presence of 100 pg/ml IL-1β, day 14)?
**A.** Its value is 189 µg/mL.

**Q.** What about the “Cumulative μg/ml sGAG/14 days” value ([2]; 10^−8 M, presence of 100 pg/ml IL-1β, day 21) of the same compound?
**A.** Its value is 330 µg/mL.

**Q.** What about the “Cumulative μg/ml sGAG/14 days” value ([2]; 10^−8 M, presence of 100 pg/ml IL-1β, day 28) of the same compound?
**A.** The value was 407 µg/mL.

**Q.** And the “Cumulative μg/ml sGAG/14 days” value ([2]; 10^−8 M, presence of 100 pg/ml IL-1β, day 35)?
**A.** The value was 441 µg/mL.

**Q.** And the “sGAG in μg/ml (release of sGAG/14 days)” value ([2]; 10^−9 M, absence of IL-1β)?
**A.** The value was 64 µg/mL.

**Q.** And the “sGAG in μg/ml (release of sGAG/14 days)” value ([2]; 10^−9 M, presence of 100 pg/ml IL-1β)?
**A.** Its value is 204 µg/mL.

**Q.** And the “time after discontinuation of treatment until inflammation decreases to 0” value ([3]; 0.1% to 1.0%, depending on the concentration (days 18 to 22))?
**A.** The value was 4 to 8 days.

**Q.** What about the “signs or symptoms of skin inflammation” value ([3]; 0.1%, 0.3% and 1.0% epicutaneous twice daily, around the tenth and eleventh day) of the same compound?
**A.** The value was “slight erythema, desquamation and pruritus”.

**Q.** What about the “signs or symptoms of skin inflammation” value ([3]; 0.1%, 0.3% and 1.0% epicutaneous twice daily, first 9 days after start of treatment, one volunteer) of the same compound?
**A.** Its value is “no signs or symptoms of skin inflammation”.

**Q.** What about the “signs or symptoms of skin inflammation” value ([3]; 0.1 and 0.3% epicutaneous twice daily, days 12, 13 and 14) of the same compound?
**A.** The value was “moderate inflammation”.

**Q.** And the “signs or symptoms of skin inflammation” value ([3]; 1.0% epicutaneous twice daily, days 12, 13 and 14)?
**A.** The value was “marked inflammation”.

**Q.** What does the source list for CCCCOc1c(\C(C)=C/C=C/C(C)=C/C(=O)O)cc(C(C)(C)C)cc1C(C)(C)C [compound A, (2E,4E,6Z)-7-[2-butoxy-3,5-bis(1,1-dimethylethyl)-phenyl]-3-methyl-2,4,6-octatrienoic acid]?
**A.** MPO activity compared to the vehicle control, normal skin ([4]; compound A 0.05%, epicutaneous, 4 days): no significant change; MPO activity in % of that of the vehicle control, normal skin ([4]; compound A 2.5%, epicutaneous, 4 days): 57%; clinical signs or symptoms of a skin inflammation on normal skin ([4]; epicutaneous 0.05% and 2.5% in acetone/ethanol, 4 consecutive days): does not induce clinical signs or symptoms of a skin inflammation; reduction of the inflammatory reaction compared to vehicle control (skin thickness, erythema, area of inflamed skin) [5]: very marked; skin inflammation, objective or subjective symptoms ([3]; 1% epicutaneous twice daily day 1-14, observation to day 28): no skin inflammation; reduction of all parameters in comparison to the values of 9-cis RA [6]: ≥ 50%
